# Data published in ChEMBL document CHEMBL1201862, “PubChem BioAssay data set” (2004).
#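 How tested: cells in 96-well plates exposed to compound for 48 hours at five concentrations. GI50: concentration for 50% inhibition of growth.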 Active and inactive are the calls of the source. Rule as the data show it: active = GI50 up to about 1.1 µM and inactive = higher.
# How the values were obtained:
# Experiment in all cases: NCI anticancer screen, dose series, 48 h
# 786-0 = tested on: 786-0
# A498 = tested on: A498
# A549 = tested on: A549
# ACHN = tested on: ACHN
# BT-549 = tested on: BT-549
# CAKI-1 = tested on: CAKI-1
# CCRF-CEM = tested on: CCRF-CEM
# COLO 205 = tested on: COLO 205
# DU-145 = tested on: DU-145
# EKVX = tested on: EKVX
# HCC 2998 = tested on: HCC 2998
# HCT-116 = tested on: HCT-116
# HCT-15 = tested on: HCT-15
# HL-60 = tested on: HL-60
# HOP-92 = tested on: HOP-92
# HT-29 = tested on: HT-29
# Hs-578T = tested on: Hs-578T
# IGROV-1 = tested on: IGROV-1
# K562 = tested on: K562
# KM12 = tested on: KM12
# LOX IMVI = tested on: LOX IMVI
# M14 = tested on: M14
# MCF7 = tested on: MCF7
# MDA-MB-231 = tested on: MDA-MB-231
# MDA-MB-435 = tested on: MDA-MB-435
# MDA-N = tested on: MDA-N
# MOLT-4 = tested on: MOLT-4
# Malme-3M = tested on: Malme-3M
# NCI-H226 = tested on: NCI-H226
# NCI-H23 = tested on: NCI-H23
# NCI-H460 = tested on: NCI-H460
# NCI-H522 = tested on: NCI-H522
# NCI/ADR-RES = tested on: NCI/ADR-RES
# OVCAR-3 = tested on: OVCAR-3
# OVCAR-4 = tested on: OVCAR-4
# OVCAR-8 = tested on: OVCAR-8
# PC-3 = tested on: PC-3
# RPMI-8226 = tested on: RPMI-8226
# RXF 393 = tested on: RXF 393
# SF-268 = tested on: SF-268
# SF-295 = tested on: SF-295
# SF-539 = tested on: SF-539
# SK-MEL-28 = tested on: SK-MEL-28
# SK-MEL-2 = tested on: SK-MEL-2
# SK-MEL-5 = tested on: SK-MEL-5
# SK-OV-3 = tested on: SK-OV-3
# SN12C = tested on: SN12C
# SNB-19 = tested on: SNB-19
# SNB-75 = tested on: SNB-75
# SR = tested on: SR
# SW-620 = tested on: SW-620
# T47D = tested on: T47D
# U-251 = tested on: U-251
# UACC-257 = tested on: UACC-257
# UACC-62 = tested on: UACC-62
# UO-31 = tested on: UO-31
# HOP-62 = tested on: HOP-62
# OVCAR-5 = tested on: OVCAR-5
# TK-10 = tested on: TK-10
structure (smiles),measurement,setting,value
CC(=O)OC1CCn2c1nc1cc([N+](=O)[O-])c(C)cc12 (stereo not given),GI50,786-0,> 100 µM (inactive)
same,GI50,A498,> 100 µM (inactive)
same,GI50,A549,> 100 µM (inactive)
same,GI50,ACHN,> 100 µM (inactive)
same,GI50,BT-549,> 100 µM (inactive)
same,GI50,CAKI-1,> 100 µM (inactive)
same,GI50,CCRF-CEM,> 100 µM (inactive)
same,GI50,COLO 205,> 100 µM (inactive)
same,GI50,DU-145,> 100 µM (inactive)
same,GI50,EKVX,> 100 µM (inactive)
same,GI50,HCC 2998,> 100 µM (inactive)
same,GI50,HCT-116,> 100 µM (inactive)
same,GI50,HCT-15,> 100 µM
same,GI50,HL-60,> 100 µM (inactive)
same,GI50,HOP-92,> 100 µM (inactive)
same,GI50,HT-29,> 100 µM (inactive)
same,GI50,Hs-578T,> 100 µM (inactive)
same,GI50,IGROV-1,> 100 µM (inactive)
same,GI50,K562,> 100 µM (inactive)
same,GI50,KM12,> 100 µM (inactive)
same,GI50,LOX IMVI,> 100 µM (inactive)
same,GI50,M14,> 100 µM (inactive)
same,GI50,MCF7,> 100 µM (inactive)
same,GI50,MDA-MB-231,> 100 µM (inactive)
same,GI50,MDA-MB-435,> 100 µM (inactive)
same,GI50,MDA-N,> 100 µM (inactive)
same,GI50,MOLT-4,> 100 µM (inactive)
same,GI50,Malme-3M,> 100 µM (inactive)
same,GI50,NCI-H226,> 100 µM (inactive)
same,GI50,NCI-H23,> 100 µM (inactive)
same,GI50,NCI-H460,> 100 µM (inactive)
same,GI50,NCI-H522,> 100 µM (inactive)
same,GI50,NCI/ADR-RES,> 100 µM (inactive)
same,GI50,OVCAR-3,> 100 µM (inactive)
same,GI50,OVCAR-4,> 100 µM (inactive)
same,GI50,OVCAR-8,> 100 µM (inactive)
same,GI50,PC-3,> 100 µM (inactive)
same,GI50,RPMI-8226,> 100 µM (inactive)
same,GI50,RXF 393,> 100 µM (inactive)
same,GI50,SF-268,> 100 µM (inactive)
same,GI50,SF-295,> 100 µM (inactive)
same,GI50,SF-539,> 100 µM (inactive)
same,GI50,SK-MEL-28,> 100 µM (inactive)
same,GI50,SK-MEL-2,> 100 µM (inactive)
same,GI50,SK-MEL-5,> 100 µM (inactive)
same,GI50,SK-OV-3,> 100 µM (inactive)
same,GI50,SN12C,> 100 µM (inactive)
same,GI50,SNB-19,> 100 µM (inactive)
same,GI50,SNB-75,> 100 µM (inactive)
same,GI50,SR,> 100 µM (inactive)
same,GI50,SW-620,> 100 µM (inactive)
same,GI50,T47D,> 100 µM (inactive)
same,GI50,U-251,> 100 µM (inactive)
same,GI50,UACC-257,> 100 µM (inactive)
same,GI50,UACC-62,> 100 µM (inactive)
same,GI50,UO-31,> 100 µM (inactive)
O=c1[nH]/c(=C/c2ccc(OCc3ccccc3)cn2)c(=O)[nH]/c1=C/c1ccc([N+](=O)[O-])cc1,GI50,786-0,> 100 µM (inactive)
same,GI50,A498,43 µM (inactive)
same,GI50,A549,> 100 µM (inactive)
same,GI50,ACHN,> 94.6 µM (inactive)
same,GI50,BT-549,54.7 µM (inactive)
same,GI50,CAKI-1,> 37.8 µM (inactive)
same,GI50,CCRF-CEM,> 100 µM (inactive)
same,GI50,COLO 205,> 100 µM (inactive)
same,GI50,DU-145,> 100 µM (inactive)
same,GI50,EKVX,> 100 µM (inactive)
same,GI50,HCC 2998,> 100 µM (inactive)
same,GI50,HCT-116,> 100 µM (inactive)
same,GI50,HCT-15,> 100 µM
same,GI50,HL-60,> 100 µM (inactive)
same,GI50,HOP-62,55.1 µM (inactive)
same,GI50,HOP-92,> 100 µM (inactive)
same,GI50,HT-29,> 100 µM (inactive)
same,GI50,Hs-578T,35.8 µM (inactive)
same,GI50,IGROV-1,> 100 µM (inactive)
same,GI50,K562,> 100 µM (inactive)
same,GI50,KM12,> 100 µM (inactive)
same,GI50,LOX IMVI,> 100 µM (inactive)
same,GI50,M14,> 100 µM (inactive)
same,GI50,MCF7,> 100 µM (inactive)
same,GI50,MDA-MB-231,> 89.3 µM (inactive)
same,GI50,MDA-MB-435,> 100 µM (inactive)
same,GI50,MDA-N,> 100 µM (inactive)
same,GI50,MOLT-4,> 63.1 µM (inactive)
same,GI50,Malme-3M,> 100 µM (inactive)
same,GI50,NCI-H226,> 100 µM (inactive)
same,GI50,NCI-H23,> 100 µM (inactive)
same,GI50,NCI-H460,> 100 µM (inactive)
same,GI50,NCI-H522,> 100 µM (inactive)
same,GI50,NCI/ADR-RES,> 100 µM (inactive)
same,GI50,OVCAR-3,> 100 µM (inactive)
same,GI50,OVCAR-4,> 100 µM (inactive)
same,GI50,OVCAR-5,> 100 µM (inactive)
same,GI50,OVCAR-8,> 100 µM (inactive)
same,GI50,PC-3,> 100 µM (inactive)
same,GI50,RPMI-8226,> 100 µM (inactive)
same,GI50,RXF 393,> 80.2 µM (inactive)
same,GI50,SF-268,> 54.2 µM (inactive)
same,GI50,SF-295,49.1 µM (inactive)
same,GI50,SF-539,> 61.4 µM (inactive)
same,GI50,SK-MEL-28,> 100 µM (inactive)
same,GI50,SK-MEL-2,> 100 µM (inactive)
same,GI50,SK-MEL-5,> 100 µM (inactive)
same,GI50,SK-OV-3,> 73.5 µM (inactive)
same,GI50,SN12C,> 100 µM (inactive)
same,GI50,SNB-19,> 64.7 µM (inactive)
same,GI50,SNB-75,27.1 µM (inactive)
same,GI50,SR,> 58.3 µM (inactive)
same,GI50,SW-620,> 100 µM (inactive)
same,GI50,T47D,> 100 µM (inactive)
same,GI50,TK-10,> 100 µM (inactive)
same,GI50,U-251,> 65.3 µM (inactive)
same,GI50,UACC-257,> 100 µM (inactive)
same,GI50,UACC-62,> 100 µM (inactive)
same,GI50,UO-31,> 100 µM (inactive)
